Here are results for 17 compounds from US10988485B2 (Amgen Inc., priority 2018, dated 2021).

The target in assay [1] is GDP-bound KRAS protein (aa 1-169), containing both G12C and C118A amino acid substitutions (Homo sapiens, UniProt P01116, C118A/G12C). Put plainly: Coupled Nucleotide Exchange Assay (SOS-mediated nucleotide exchange, AlphaScreen). It counts as biochemical. Conditions: compound pre-incubation either 5 min or 2 hours (not stated per compound); SOS and GTP added, cRAF AlphaScreen read-out. Here is the method:
(§1) For compounds in Table 6, the following assay conditions were employed:
Coupled Nucleotide Exchange Assay: Purified GDP-bound KRAS protein (aa 1-169), containing both G12C and C118A amino acid substitutions and an N-terminal His-tag, was pre-incubated in assay buffer (25 mM HEPES pH 7.4, 10 mM MgCl2, and 0.01% Triton X-100) with a compound dose-response titration for either 5 min or 2 hours (see Table 15). Following compound pre-incubation, purified SOS protein (aa 564-1049) and GTP (Roche 10106399001) were added to the assay wells and incubated for an additional 30 min (for 5 min compound pre-incubation) or 1 hour (for 2 hour compound pre-incubation). To determine the extent of inhibition of SOS-mediated nucleotide exchange, purified GST-tagged cRAF (aa 1-149), nickel chelate AlphaLISA acceptor beads (PerkinElmer AL108R), and AlphaScreen glutathione donor beads (PerkinElmer 6765302) were added to the assay wells and incubated for 10 minutes. The assay plates were then read on a PerkinElmer EnVision Multilabel Reader, using AlphaScreen® technology, and data were analyzed using a 4-parameter logistic model to calculate IC50 values.

The test system of assay [2] is Phosphorylation of ERK1/2 in MIA PaCa-2 cells. In words: Phospho-ERK1/2 MSD Assay. The class given is cell-based. The settings on record: compound 2 or 4 hours, then 10 ng/mL EGF for 10 min, read-out: p-ERK IC50 (MIA-PaCa-2) (converted). The procedure:
as §1
Phospho-ERK1/2 MSD Assay: MIA PaCa-2 (ATCC® CRL-1420™) cells were cultured in RPMI 1640 Medium (ThermoFisher Scientific 11875093) containing 10% fetal bovine serum (ThermoFisher Scientific 16000044) and 1× penicillin-streptomycin-glutamine (ThermoFisher Scientific 10378016). Sixteen hours prior to compound treatment, MIA PaCa-2 cells were seeded in 96-well cell culture plates at a density of 25,000 cells/well and incubated at 37° C., 5% CO2. A compound dose-response titration was diluted in growth media, added to appropriate wells of a cell culture plate, and then incubated at 37° C., 5% CO2 for 2 or 4 hours. Following compound treatment, cells were stimulated with 10 ng/mL EGF (Roche 11376454001) for 10 min, washed with ice-cold Dulbecco's phosphate-buffered saline, no Ca^2+ or Mg^2+ (ThermoFisher Scientific 14190144), and then lysed in RIPA buffer (50 mM Tris-HCl pH 7.5, 1% Igepal, 0.5% sodium deoxycholate, 150 mM NaCl, and 0.5% sodium dodecyl sulfate) containing protease inhibitors (Roche 4693132001) and phosphatase inhibitors (Roche 4906837001). Phosphorylation of ERK1/2 in compound-treated lysates was assayed using Phospho-ERK1/2 Whole Cell Lysate kits (Meso Scale Discovery K151DWD) according to the manufacturer's protocol. Assay plates were read on a Meso Scale Discovery Sector imager 6000, and data were analyzed using a 4-parameter logistic model to calculate IC50 values.

Setting [3] is: Homo sapiens, MIA PaCa-2, MIA PaCa-2 cells.

The structures appear in SMILES notation. Read-outs that look alike come from different tables or passages of the source.

Sequence of GDP-bound KRAS protein (aa 1-169), containing both G12C and C118A amino acid substitutions (P01116 1-169 isoform P01116-2 G12C/C118A): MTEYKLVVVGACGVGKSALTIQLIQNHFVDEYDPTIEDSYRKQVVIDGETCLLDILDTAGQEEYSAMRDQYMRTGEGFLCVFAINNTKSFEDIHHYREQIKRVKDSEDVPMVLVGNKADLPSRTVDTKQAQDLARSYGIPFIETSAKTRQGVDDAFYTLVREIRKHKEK

`C=CC(=O)N1C[C@H](C)N(C2=NS(=O)(=O)N(c3c(C)cnn3C(C)C)c3nc(-c4ccccc4F)c(Cl)cc32)C[C@H]1C` (single isomer, unassigned) [Example 1-11-2]: the 50% inhibitory concentration (IC50) in assay [1] was 0.15 µM; in assay [2] (MIA PaCa-2 cells), 330 nM. For `C=CC(=O)N1CCN(C2=NS(=O)(=O)N(c3c(C)ccnc3C(C)C)c3nc(-c4ccccc4F)c(Cl)cc32)[C@@H](C)C1` (single isomer, unassigned) [Example 2-2-1], the results for the IC50 in assay [1] and in assay [2] (MIA PaCa-2 cells) were 0.24 µM and 270 nM, respectively. In the case of `C=CC(=O)N1C[C@H](C)N(C2=NS(=O)(=O)N(c3ccccc3C(C)(C)C)c3nc(-c4ccccc4F)c(Cl)cc32)C[C@H]1C` [Example 1-1], in assay [2] (MIA PaCa-2 cells), the IC50 was 340 nM. `C=CC(=O)N1CCN(C2=NS(=O)(=O)N(c3ccccc3C(C)C)c3nc(-c4ccccc4S(C)(=O)=O)c(Cl)cc32)[C@@H](C)C1` [Example 1-9, 1-((3S)-4-(6-chloro-7-(2-(methylsulfonyl)phenyl)-2,2-dioxido-1-(2-(2-propanyl)phenyl)-1H-pyrido[2,3-c][1,2,6]thiadiazin-4-yl)-3-methyl-1-piperazinyl)-2-propen-1-one]: the values for the IC50 in assay [1] and in assay [2] (setting [3]) were 0.19 µM and 180 nM, respectively. For `C=CC(=O)N1CCN(C2=NS(=O)(=O)N(c3c(C)ccnc3C(C)C)c3nc(-c4ccccc4F)c(Cl)cc32)[C@@H](C)C1` (single isomer, unassigned) [Example 2-2-2], the IC50 was 2.98 µM in assay [1] and 1520 nM in assay [2] (MIA PaCa-2 cells).

Turning to `C=CC(=O)N1CCN(C2=NS(=O)(=O)N(c3ccccc3C(C)C)c3nc(-c4c(N)cccc4F)c(Cl)cc32)[C@@H](C)C1` [Example 1-3, 1-((3S)-4-(7-(2-amino-6-fluorophenyl)-6-chloro-2,2-dioxido-1-(2-(2-propanyl)phenyl)-1H-pyrido[2,3-c][1,2,6]thiadiazin-4-yl)-3-methyl-1-piperazinyl)-2-propen-1-one], the IC50 was 0.06 µM in assay [1] and 70 nM in assay [2] (setting [3]). Turning to `C=CC(=O)N1CCN(C2=NS(=O)(=O)N(c3c(C(C)C)ncnc3C(C)C)c3nc(-c4ccccc4F)c(Cl)cc32)[C@@H](C)C1` [Example 2-4, (S)-1-(4-(6-chloro-1-(4,6-diisopropylpyrimidin-5-yl)-7-(2-fluorophenyl)-2,2-dioxido-1H-pyrido[2,3-c][1,2,6]thiadiazin-4-yl)-3-methylpiperazin-1-yl)prop-2-en-1-one], the IC50 in assay [1] is 0.29 µM; in assay [2] (setting [3]) it was 310 nM.

As for `C=CC(=O)N1C[C@H](C)N(C2=NS(=O)(=O)N(c3ccccc3C(C)C)c3nc(-c4c(O)cccc4F)c(Cl)cc32)C[C@H]1C` [Example 1-4, 1-((2R,5S)-4-(6-chloro-7-(2-fluoro-6-hydroxyphenyl)-2,2-dioxido-1-(2-(2-propanyl)phenyl)-1H-pyrido[2,3-c][1,2,6]thiadiazin-4-yl)-2,5-dimethyl-1-piperazinyl)-2-propen-1-one], the IC50 in assay [1] was 0.17 µM; in assay [2] (setting [3]) it was 160 nM.

With `C=CC(=O)N1C[C@H](C)N(C2=NS(=O)(=O)N(c3c(C)cc(CN(C)C)cc3C(C)C)c3nc(-c4c(N)cccc4F)c(Cl)cc32)C[C@H]1C` [Example 8, 1-((2R,5S)-4-(7-(2Amino-6-fluorophenyl)-6-chloro-1-(4-((dimethylamino)methyl)-2-methyl-6-(2-propanyl)phenyl)-2,2-dioxido-1H-pyrido[2,3-c][1,2,6]thiadiazin-4-yl)-2,5-dimethyl-1-piperazinyl)-2-propen-1-one], the half-maximal inhibitory concentration (IC50) in assay [1] is 0.19 µM; in assay [2] (MIA PaCa-2 cells), 270 nM. `C=CC(=O)N1C[C@H](C)N(C2=NS(=O)(=O)N(c3scnc3C(C)C)c3nc(-c4c(O)cccc4F)c(Cl)cc32)C[C@H]1C` [Example 1-5, 1-((2R,5S)-4-(6-chloro-7-(2-fluoro-6-hydroxyphenyl)-2,2-dioxido-1-(4-(2-propanyl)-1,3-thiazol-5-yl)-1H-pyrido[2,3-c][1,2,6]thiadiazin-4-yl)-2,5-dimethyl-1-piperazinyl)-2-propen-1-one]: the values for the concentration for half-maximal inhibition (IC50) in assay [1] and in assay [2] (setting [3]) were 0.10 µM and 110 nM, respectively. On to `C=CC(=O)N1C[C@H](C)N(C2=NS(=O)(=O)N(c3c(C)cc(CN(C)C)cc3C(C)C)c3nc(-c4c(N)cccc4F)c(Cl)cc32)C[C@H]1C` [Example 8-1, 1-((2R,5S)-4-(7-(2-amino-6-fluorophenyl)-6-chloro-1-(4-((dimethylamino)methyl)-2-methyl-6-(2-propanyl)phenyl)-2,2-dioxido-1H-pyrido[2,3-c][1,2,6]thiadiazin-4-yl)-2,5-dimethyl-1-piperazinyl)-2-propen-1-one], for which the results for the IC50 in assay [1] and in assay [2] (MIA PaCa-2 cells) were 0.08 µM and 80 nM, respectively. Turning to `C=CC(=O)N1C[C@H](C)N(C2=NS(=O)(=O)N(c3ccccc3C(C)C)c3nc(-c4ccccc4F)c(Cl)cc32)C[C@H]1C` [Example 2-3, 1-((2R,5S)-4-(6-chloro-7-(2-fluorophenyl)-1-(2-isopropylphenyl)-2,2-dioxido-1H-pyrido[2,3-c][1,2,6]thiadiazin-4-yl)-2,5-dimethylpiperazin-1-yl)prop-2-en-1-one], the IC50 in assay [1] was 0.18 µM; in assay [2] (setting [3]) it was 240 nM. `C=CC(=O)N1CCN(C2=NS(=O)(=O)N(c3ccc(CN(C)C)cc3C(C)C)c3nc(-c4ccccc4F)c(Cl)cc32)[C@@H](C)C1` [Example 3-1, 1-((3S)-4-(6-Chloro-1-(4-((dimethylamino)methyl)-2-(2-propanyl)phenyl)-7-(2-fluorophenyl)-2,2-dioxido-1H-pyrido[2,3-c][1,2,6]thiadiazin-4-yl)-3-methyl-1-piperazinyl)-2-propen-1-one]: the IC50 is 0.15 µM in assay [1] and 90 nM in assay [2] (setting [3]). For the compound `C=CC(=O)N1C[C@H](C)N(C2=NS(=O)(=O)N(c3c(C)ccnc3C(C)C)c3nc(-c4ccccc4C)c(Cl)cc32)C[C@H]1C` (single isomer, unassigned) [Example 1-12-1], the IC50 in assay [1] is 0.22 µM; in assay [2] (setting [3]), 290 nM.

As for `C=CC(=O)N1C[C@H](C)N(C2=NS(=O)(=O)N(c3ccc(CN(C)C)cc3C3CC3)c3nc(-c4ccccc4F)c(Cl)cc32)C[C@H]1C` [Example 6, 1-((2R,5S)-4-(6-Chloro-1-(2-cyclopropyl-4-((dimethylamino)methyl)phenyl)-7-(2-fluorophenyl)-2,2-dioxido-1H-pyrido[2,3-c][1,2,6]thiadiazin-4-yl)-2,5-dimethyl-1-piperazinyl)-2-propen-1-one], the IC50 in assay [1] is 0.15 µM; in assay [2] (setting [3]) it was 150 nM. As for `C=CC(=O)N1C[C@H](C)N(C2=NS(=O)(=O)N(c3c(N)ncnc3C(C)C)c3nc(-c4ccccc4F)c(Cl)cc32)C[C@H]1C` [Example 9], the IC50 in assay [1] was 0.25 µM; in assay [2] (MIA PaCa-2 cells), 150 nM.

As for `C=CC(=O)N1C[C@H](C)N(C2=NS(=O)(=O)N(c3ccc(CN(C)C)cc3C(C)(C)C)c3nc(-c4ccccc4F)c(Cl)cc32)C[C@H]1C` [Example 1-13-2, 1-((2R,5S)-4-(6-chloro-1-(4-((dimethylamino)methyl)-2-(2-methyl-2-propanyl)phenyl)-7-(2-fluorophenyl)-2,2-dioxido-1H-pyrido[2,3-c][1,2,6]thiadiazin-4-yl)-2,5-dimethyl-1-piperazinyl)-2-propen-1-one], the half-inhibitory concentration (IC50) in assay [1] amounted to 3.87 µM.
